Laboratory results published in patent EP4488278A1, “SUBSTITUTED PYRIDYL/PYRAZINYL DIHYDROPYRROLOTRIAZINE COMPOUNDS FOR COMBATTING PHYTOPATH-OGENIC FUNGI” (BASF SE, priority 2023, dated 2025).

Tests used:
[1] = tested on: Botrytis cinerea; experiment: Microtest: activity against the grey mold Botrytis cinerea in the microtiterplate test; type: cell-based; details: 31 ppm active substance; absorption at 405 nm 7 days after inoculation, 18°C; relative to active compound-free control (100%)
Protocol: The active compounds were formulated separately as a stock solution having a concentration of 10000 ppm in dimethyl sulfoxide.
The stock solutions were mixed according to the ratio, pipetted onto a micro titer plate (MTP) and diluted with water to the stated concentrations. A spore suspension of Botrci cinerea in an aqueous biomalt or yeast-bactopeptone-sodiumacetate solution was then added. The plates were placed in a water vapor-saturated chamber at a temperature of 18°C. Using an absorption photometer, the MTPs were measured at 405 nm 7 days after the inoculation.
The measured parameters were compared to the growth of the active compound-free control variant (100%) and the fungus-free blank value to determine the relative growth in % of the pathogens in the respective active compounds.

[2] = tested on: Botrytis cinerea; experiment: Green house: preventative fungicidal control of Botrytis cinerea on leaves of green pepper; type: in vivo; details: 250 ppm active substance, green pepper plants sprayed to run-off one day before inoculation; assessed visually as % diseased leaf area after 5 days at 22 to 24°C; untreated plants 90% infected
Protocol: The compound was dissolved in a mixture of acetone and/or dimethylsulfoxide and the wetting agent/emulsifier Wettol, which is based on ethoxylated alkylphenoles, in a ratio (volume) solvent-emulsifier of 99 to 1 to give a total volume of 5 ml. Subsequently, water was added to total volume of 100 ml. This stock solution was then diluted with the described solvent-emulsifier-water mixture to the final concentration given in the table below. Young seedlings of green pepper were grown in pots to the 4 to 5 leaf stage. These plants were sprayed to run-off with previously described spray solution, containing the concentration of active ingredient or mixture mentioned in the table below. The next day the plants were inoculated with an aqueous biomalt or DOB solution containing the spore suspension of Botrytis cinerea. Then the plants were immediately transferred to a humid chamber. After 5 days at 22 to 24°C and a saturated relative humidity, the extent of fungal attack on the leaves was visually assessed as % diseased leaf area.

SMILES | growth of the pathogen [1] [%] | growth of the pathogen [2]
Cc1cc(C2=NC(C)(C)Nn3cccc32)cnc1C(F)F [Ex-2, 4-(6-(difluoromethyl)-5-methylpyridin-3-yl)-2,2-dimethyl-1,2-dihydropyrrolo[2,1-f][1,2,4]triazine] | 0 | 
Cc1cc(C2=NC(C)(C)N(C)n3cccc32)cnc1C(F)F [Ex-1, 4-(6-(difluoromethyl)-5-methylpyridin-3-yl)-1,2,2-trimethyl-1,2-dihydropyrrolo[2,1-f][1,2,4]triazine] | 0 | at most 7%
